# Data: US10428111B2, “Cancer targeting by anti-EGFR peptides and applications thereof” (priority 2015, dated 2019)
# Like-named read-outs stand apart in the source and are kept apart here.
# Columns and labels:
# [1] = tested on: TUBO (HER2-overexpressing cells); experiment: MTT cytotoxicity study; assay type: cell-based, mice; conditions: then 48 hours, mean ± SD, n = 3
# Procedure: (§1) The anti-proliferative effects of liposomal preparations containing DOX were assessed using MTT assay. SK-BR-3, TUBO, and MDA-MB-231 cells were seeded at 7000, 10,000, 2500 cells/well in 96 well plates. After an overnight incubation, the medium was replaced with FCS free medium containing 1:2 serial dilutions of liposomal DOX or free DOX. After 3 hours and 6 hours' incubation times at 37° C., cells were washed with pre-warmed complete culture media and re-incubated further for 48 hours at 37° C. in their complete culture medium. Then, the medium was replaced with 100 μL of freshly prepared MTT (10% v/v, 5 mg/mL) and FCS free culture medium. Finally, after 4 hours of incubation at 37° C., the absorbance at 545 nm was recorded. Relative cell death (R) was calculated as follows: R=1−[(Atest−Ablank)/(Acontrol−Ablank)] Equation (1)
# (§2) In the above Equation (1), Atest is the absorbance values of the cells treated with the test solutions and Acontrol is the absorbance values of the culture medium (negative control). Ablank is the absorbance of MTT solution added in cell free wells. The IC50 was then calculated using CalcuSyn version 2 software (BIOSOFT, UK).
# [2] = tested on: MDA-MB-231 (HER2-Low expressing cells); experiment: MTT cytotoxicity study; assay type: cell-based; conditions: then 48 hours, mean ± SD, n = 3
# Procedure: as §1, §2
# [3] = Bio-distribution study (DOX in plasma, tumor and tissues); assay type: in vivo, BALB/c mice; conditions: 15 mg/kg as DOX; after 3 hours
# Procedure: Two weeks after tumor inoculation, when the tumors were approximately 5 mm wide, mice (3 per group) were injected via the tail vain with either 15 mg/kg of doxorubicin as Caelyx® or targeted liposomes. Control mice received 200 μL of dextrose 5%. Blood samples were collected via retro orbital bleeding (approx. 0.5 mL) 3, 6, and 12 hours after the dosing. After 24 hours, the group was sacrificed for tissue collection. Blood samples were collected by heart puncture, and the whole tumor, kidneys, spleen, heart, lungs as well as a portion of liver and muscle were dissected, weighted and placed in a 2 mL Polypropylene Microvials containing 1 mL of acidified isopropanol and zirconia bead sand homogenized by Mini-Beadbeater-1. The blood was allowed to coagulate at 4° C. and then centrifuged for 10 min at 14,000 rpm. Then, serum was collected and an adequate volume was diluted in 1 mL acidified isopropanol. The homogenized tissue samples and the sera were stored overnight at 4° C. to extract the drug. The samples were then centrifuged and the supernatant was assayed for DOX concentration spectrofluorimetrically (Ex:470 nm, Em:590 nm). The calibration curve was prepared using serial dilutions of Doxil the tissue and sera extracts of the control mice. […]
# [4] = tested on: SKBR3 (HER2-overexpressing cells); experiment: MTT cytotoxicity study; assay type: cell-based, human; conditions: then 48 hours, mean ± SD, n = 3
# Procedure: as §1, §2
# [5] = tested on: TUBO breast carcinoma tumor; experiment: Chemotherapy study in tumor-bearing mice; conditions: for CR (complete regression) / TFS (tumor free survivor): number of animals of n = 4-5; for TGD (Tumor growth delay): versus dextrose 5% control
# Procedure: Initially, on day 0, female BALB/c mice aged 4-6 weeks were given subcutaneous injections of TUBO tumor cells (5×10^5 cells per mouse) in the right flank. On day 11, post-tumoring mice with palpable tumor received 0.2 mL via a single tail vein injection of either dextrose 5% solution as negative control or doxorubicin encapsulated in liposomes (15 mg/kg). Mice were weighed and tumor sizes were monitored during the experimental period. The tumor volume was estimated by measuring three orthogonal diameters (a, b, and c) with calipers; the volume was calculated as (a×b×c)×0.5 mm^3. Tumors that were just palpable were defined as 1 mm^3. To survival study, the mice were monitored for up to 120 days post-tumoring or until one of the following conditions for euthanasia was met: (1) their body weight dropped below 20% of their initial mass; (2) their tumor was greater than 2.0 cm across in any dimension; (3) they became lethargic or sick and unable to feed; or (4) they were found dead. The time to reach the endpoint (TTE) for each mouse was calculated from the equation of the line obtained by exponential regression of the tumor growth curve. Subsequently, the percent of tumor growth delay (% TGD) were calculated based on the difference between the mean TTE of treatment group (T) and theme an TTE of the control group (C) (% TGD=[(T−C)/C]×100). […] In a partial regression response, the tumor volume is less than or equal to 50% of its day 1 volume for three consecutive measurements during the course of the study, and greater than or equal to 13.5 mm^3 for one or more of these three measurements. In a complete regression response, the tumor volume is less than 13.5 mm^3 for three consecutive measurements during the course of the study. An animal with a complete regression response at the end of the study was additionally classified as a tumor-free survivor.
# The investigation to get the above-mentioned results took place in female BALB/c mice earing TUBO breast carcinoma tumor after administration of a single dose of 15 mg/kg liposome loaded by doxorubicin (DOX) or dextrose 5% on day 11 after tumor inoculation.
# [6] = Table 3B (719W), liposomes 15 mg/kg, DOX 10 mg/kg
smiles,measurement,setting,value
"COc1cccc2c1C(=O)c1c(O)c3c(c(O)c1C2=O)C[C@@](O)(C(=O)CO)C[C@@H]3O[C@H]1C[C@H](N)[C@H](O)[C@H](C)O1 [DOX, doxorubicin]",IC50,"[1]; Table 2A (420W), 3 hours incubation, read-out: IC50 TUBO 3 hours",150 ± 70 nM
same,IC50,"[1]; Table 2A (420W), 6 hours incubation, read-out: IC50 TUBO 6 hours",90 ± 10 nM
same,IC50,"[1]; Table 2B (719W), 3 h incubation, read-out: IC50 TUBO 3 h",150 ± 10 nM
same,IC50,"[1]; Table 2B (719W), 6 h incubation, read-out: IC50 TUBO 6 h",90 ± 30 nM
same,IC50,"[2]; Table 2A (420W), 3 hours incubation, read-out: IC50 MDA-MB-231 3 hours",600 ± 50 nM
same,IC50,"[2]; Table 2A (420W), 6 hours incubation, read-out: IC50 MDA-MB-231 6 hours",260 ± 10 nM
same,IC50,"[2]; Table 2B (719W), 3 h incubation, read-out: IC50 MDA-MB-231 3 h",600 ± 90 nM
same,IC50,"[2]; Table 2B (719W), 6 h incubation, read-out: IC50 MDA-MB-231 6 h",260 ± 40 nM
same,plasma concentration of DOX after intravenous injection,[3],below the detection limit
same,IC50,"[4]; Table 2A (420W), 3 hours incubation, read-out: IC50 SKBR3 3 hours",620 ± 20 nM
same,IC50,"[4]; Table 2A (420W), 6 hours incubation, read-out: IC50 SKBR3 6 hours",390 ± 50 nM
same,IC50,"[4]; Table 2B (719W), 3 h incubation, read-out: IC50 SKBR3 3 h",560 ± 20 nM
same,IC50,"[4]; Table 2B (719W), 6 h incubation, read-out: IC50 SKBR3 6 h",240 ± 10 nM
same,CR (complete regression),[5]; Table 3A (420W),0
same,TFS (tumor free survivor),[5]; Table 3A (420W),0
same,TTE (time to reach the end point),"[5]; Table 3A (420W), single i.v. dose on day 11, monitored up to 120 days",70.4 days
same,MST (Median survival Time),"[5]; Table 3A (420W), single i.v. dose on day 11 after tumor inoculation, monitored up to 120 days",69.2 days
same,TGD (Tumor growth delay),[5]; Table 3A (420W),18%
same,TTE (time to reach the end point),[5]; [6],70.4 days
same,CR (complete regression),[5]; [6],0
same,TFS (tumor free survivor),[5]; [6],0
same,MST (Median survival Time),"[5]; Table 3B (719W), single i.v. dose, liposomes 15 mg/kg, DOX 10 mg/kg, up to 120 days",69.2 days
same,TGD (Tumor growth delay),[5]; [6],18%
